Results taken from patent publication US6737383B1, “Herbicidal oxadiazolidines” (priority 1999, dated 2004).

How the values were obtained:
[1] = system: crabgrass; test: Test B pre/postemergence crabgrass; format: in vivo, Digitaria sanguinalis
Summary of the method: (§1)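 Response is a visual 0-to-10 score relative to untreated plants, where 0 means no effect and 10 means complete control, taken twelve to sixteen days after application. Treatments went onto soil at planting and onto foliage of 1- to 4-leaf plants, using a surfactant-containing non-phytotoxic solvent.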

[2] = system: wild oat; test: Test B pre/postemergence wild oat; format: in vivo, Avena fatua
Summary of the method: as §1

[3] = system: velvetleaf; test: Test B pre/postemergence velvetleaf; format: in vivo, Abutilon theophrasti
Summary of the method: as §1

[4] = system: bedstraw; test: Test B pre/postemergence bedstraw; format: in vivo, Galium aparine
Summary of the method: as §1

[5] = system: pigweed; test: Test B pre/postemergence pigweed; format: in vivo, Amaranthus retroflexus
Summary of the method: as §1

[6] = system: rice; test: Test B flood test rice; format: in vivo, Oryza sativa
Summary of the method: (§2)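 Each value is a visual injury score relative to controls, with 10 meaning complete control and 0 no effect. Evaluation took place twelve to sixteen days after the 2-leaf-stage plants were treated and kept in the greenhouse.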

[7] = system: surinam grass; test: Test B pre/postemergence surinam grass; format: in vivo, Brachiaria decumbens
Summary of the method: as §1

[8] = system: bamyardgrass; test: Test B flood test barnyardgrass; format: in vivo, Echinochloa crus-galli
Summary of the method: as §2

[9] = system: sugar beet; test: Test B pre/postemergence sugar beet; format: in vivo, Beta vulgaris
Summary of the method: as §1

[10] = system: morningglory; test: Test B pre/postemergence morningglory; format: in vivo, Ipomoea hederacea
Summary of the method: as §1

[11] = system: corn; test: Test B pre/postemergence corn; format: in vivo, Zea mays
Summary of the method: as §1

[12] = system: smallflower flatsedge; test: Test B flood test smallflower flatsedge; format: in vivo, Cyperus difformis
Summary of the method: as §2

[13] = system: duck salad; test: Test B flood test duck salad; format: in vivo, Heteranthera limosa
Summary of the method: as §2

[14] = system: cocklebur; test: Test B pre/postemergence cocklebur; format: in vivo, Xanthium strumarium
Summary of the method: as §1

[15] = system: rape; test: Test B pre/postemergence rape; format: in vivo, Brassica napus
Summary of the method: as §1

[16] = system: soybean; test: Test B pre/postemergence soybean; format: in vivo, Glycine max
Summary of the method: as §1

[17] = Postemergence, Rate 125 g/ha, scale of 0 to 10 where 0 is no effect and 10 is complete control
[18] = Preemergence, Rate 62 g/ha, scale 0 to 10 (0 no effect, 10 complete control)
[19] = Preemergence, Rate 125 g/ha, 0 is no effect, 10 is complete control
[20] = Preemergence, Rate 250 g/ha, scale 0 to 10, 0 is no effect, 10 is complete control
[21] = Preemergence, Rate 500 g/ha, scale 0 to 10 (0 no effect, 10 complete control)
[22] = Rate 62 g/ha, Postemergence, scale of 0 to 10 where 0 is no effect and 10 is complete control
[23] = Rate 250 g/ha, Postemergence, scale 0 to 10, 0 is no effect, 10 is complete control
[24] = Rate 500 g/ha, Postemergence, scale 0 to 10
[25] = Postemergence (flood test species), Rate 125 g/ha, scale of 0 to 10 where 0 is no effect and 10 is complete control
[26] = Rate 62 g/ha, Postemergence section, flood test species, scale of 0 to 10 where 0 is no effect and 10 is complete control
[27] = Rate 250 g/ha, Postemergence (flood test), scale 0 to 10, 0 is no effect, 10 is complete control
[28] = Rate 250 g/ha, Pre-emergence, flood-test species, scale 0 to 10, 0 is no effect, 10 is complete control
[29] = Rate 500 g/ha, headed Pre-emergence (flood test species), scale 0 to 10 (0 no effect, 10 complete control)
[30] = Rate 500 g/ha, listed under Postemergence (flood test species), scale 0 to 10
[31] = Rate 1000 g/ha, Pre-emergence (as headed), scale 0 to 10
[32] = Rate 2000 g/ha, Pre-emergence (as headed), scale 0 to 10

C=CCn1c(=O)on(C(=O)N(c2ccc(F)cc2)C2CC2)c1=O [Compound 154]
Crabgrass plant response rating [1, 17]: 0
Crabgrass plant response rating [1, 18]: 0
Crabgrass plant response rating (0 to 10 scale) [1, 19]: 0
Crabgrass plant response rating [1, 20]: 0
Crabgrass plant response rating [1, 21]: 0
Crabgrass plant response rating [1, 22]: 0
Plant response rating, Crabgrass [1, 23]: 1
Crabgrass plant response rating [1, 24]: 5
Wild oats plant response rating [2, 18]: 0
Wild oats plant response rating (0 to 10 scale) [2, 19]: 0
Wild oats plant response rating [2, 20]: 4
Wild oats plant response rating [2, 21]: 5
Wild oats plant response rating [2, 22]: 0
Plant response rating, Wild oats [2, 23]: 0
Wild oats plant response rating [2, 24]: 1
Velvetleaf plant response rating [3, 18]: 0
Velvetleaf plant response rating (0 to 10 scale) [3, 19]: 0
Velvetleaf plant response rating [3, 20]: 0
Velvetleaf plant response rating [3, 21]: 0
Velvetleaf plant response rating [3, 22]: 0
Plant response rating, Velvetleaf [3, 23]: 0
Velvetleaf plant response rating [3, 24]: 0
Bedstraw plant response rating [4, 17]: 0
Bedstraw plant response rating [4, 18]: 0
Bedstraw plant response rating (0 to 10 scale) [4, 19]: 0
Bedstraw plant response rating [4, 20]: 0
Bedstraw plant response rating [4, 21]: 0
Bedstraw plant response rating [4, 22]: 0
Plant response rating, Bedstraw [4, 23]: 0
Redroot pigweed plant response rating [5, 17]: 0
Redroot pigweed plant response rating [5, 18]: 6
Redroot pigweed plant response rating (0 to 10 scale) [5, 19]: 7
Redroot pigweed plant response rating [5, 20]: 8
Redroot pigweed plant response rating [5, 21]: 9
Redroot pigweed plant response rating [5, 22]: 0
Plant response rating, Redroot pigweed [5, 23]: 2
Redroot pigweed plant response rating [5, 24]: 6
Rice plant response rating [6, 25]: 0
Rice plant response rating [6, 26]: 0
Plant response rating, Rice [6, 27]: 0
Rice plant response rating [6, 28]: 0
Plant response rating, Rice [6, 29]: 0
Rice plant response rating [6, 30]: 0
Rice plant response rating [6, 31]: 0
Rice plant response rating [6, 32]: 0
B. signalgrass plant response rating [7, 17]: 0
B. signalgrass plant response rating [7, 18]: 0
B. signalgrass plant response rating (0 to 10 scale) [7, 19]: 0
B. signalgrass plant response rating [7, 20]: 0
B. signalgrass plant response rating [7, 21]: 4
B. signalgrass plant response rating [7, 22]: 0
Plant response rating, B. signalgrass [7, 23]: 0
B. signalgrass plant response rating ([7]; Rate 500 g/ha, Postemergence, scale 0 to 10, 0 no effect, 10 complete control): 2
Barnyardgrass plant response rating [8, 25]: 0
Barnyardgrass plant response rating [8, 26]: 0
Plant response rating, Barnyardgrass [8, 27]: 0
Barnyardgrass plant response rating [8, 28]: 0
Plant response rating, Barnyardgrass [8, 29]: 0
Barnyardgrass plant response rating [8, 30]: 0
Barnyardgrass plant response rating [8, 31]: 0
Barnyardgrass plant response rating ([8]; Rate 2000 g/ha, Pre-emergence (as headed), scale 0 to 10, 0 no effect, 10 complete control): 0
Sugarbeets plant response rating [9, 17]: 0
Sugarbeets plant response rating [9, 18]: 0
Sugarbeets plant response rating (0 to 10 scale) [9, 19]: 0
Sugarbeets plant response rating [9, 20]: 4
Sugarbeets plant response rating [9, 21]: 6
Sugarbeets plant response rating [9, 22]: 0
Plant response rating, Sugarbeets [9, 23]: 0
Sugarbeets plant response rating [9, 24]: 0
Morningglory plant response rating [10, 17]: 0
Morningglory plant response rating [10, 18]: 0
Morningglory plant response rating (0 to 10 scale) [10, 19]: 0
Morningglory plant response rating [10, 20]: 0
Morningglory plant response rating [10, 21]: 0
Morningglory plant response rating [10, 22]: 0
Plant response rating, Morningglory [10, 23]: 1
Morningglory plant response rating [10, 24]: 2
Corn plant response rating [11, 17]: 0
Corn plant response rating [11, 18]: 0
Corn plant response rating (0 to 10 scale) [11, 19]: 0
Corn plant response rating [11, 20]: 0
Corn plant response rating [11, 21]: 0
Corn plant response rating [11, 22]: 0
Plant response rating, Corn [11, 23]: 0
Corn plant response rating [11, 24]: 0
S. Flatsedge plant response rating [12, 25]: 0
S. Flatsedge plant response rating ([12]; Pre-emergence, Rate 1000 g/ha, scale 0 to 10 (0 no effect, 10 complete control)): 0
S. Flatsedge plant response rating [12, 26]: 0
Plant response rating, S. Flatsedge [12, 27]: 0
S. Flatsedge plant response rating [12, 28]: 0
S. Flatsedge plant response rating [12, 30]: 0
S. Flatsedge plant response rating ([12]; Rate 500 g/ha, Pre-emergence, flood test species, scale 0 to 10 (0 no effect, 10 complete control)): 0
S. Flatsedge plant response rating [12, 32]: 0
Ducksalad plant response rating [13, 25]: 0
Ducksalad plant response rating [13, 26]: 0
Plant response rating, Ducksalad [13, 27]: 0
Ducksalad plant response rating [13, 28]: 0
Plant response rating, Ducksalad [13, 29]: 0
Ducksalad plant response rating [13, 30]: 0
Ducksalad plant response rating [13, 31]: 0
Ducksalad plant response rating [13, 32]: 0
Cocklebur plant response rating [14, 17]: 0
Cocklebur plant response rating [14, 18]: 0
Cocklebur plant response rating (0 to 10 scale) [14, 19]: 0
Cocklebur plant response rating [14, 20]: 0
Cocklebur plant response rating [14, 21]: 0
Cocklebur plant response rating [14, 22]: 0
Plant response rating, Cocklebur [14, 23]: 0
Cocklebur plant response rating [14, 24]: 2
Rape plant response rating [15, 17]: 0
Rape plant response rating [15, 18]: 0
Rape plant response rating (0 to 10 scale) [15, 19]: 0
Rape plant response rating [15, 20]: 0
Rape plant response rating [15, 21]: 0
Rape plant response rating [15, 22]: 0
Plant response rating, Rape [15, 23]: 0
Rape plant response rating [15, 24]: 0
Soybean plant response rating [16, 17]: 2
Soybean plant response rating [16, 18]: 0
Soybean plant response rating (0 to 10 scale) [16, 19]: 0
Soybean plant response rating [16, 20]: 0
Soybean plant response rating [16, 21]: 0
Soybean plant response rating [16, 22]: 2
Plant response rating, Soybean [16, 23]: 2
Soybean plant response rating [16, 24]: 3
